pIC50: −log10 of the molar value. Read-outs that look alike come from different tables or passages of the source.
Columns and labels:
human androgen receptor [1] = target: T1, human androgen receptor (Homo sapiens, UniProt P10275); assay: Measurement of agonist effect on androgen receptor (reporter gene assay, 11A11B2 cells); format: cell-based; details: compound concentration showing a transcription activity of 5% (0.1 nmol/L DHT = 100%, assay medium alone = 0%), 48 hours
T1 construct: expressed in transfected cells
T1 sequence (P10275 1-920): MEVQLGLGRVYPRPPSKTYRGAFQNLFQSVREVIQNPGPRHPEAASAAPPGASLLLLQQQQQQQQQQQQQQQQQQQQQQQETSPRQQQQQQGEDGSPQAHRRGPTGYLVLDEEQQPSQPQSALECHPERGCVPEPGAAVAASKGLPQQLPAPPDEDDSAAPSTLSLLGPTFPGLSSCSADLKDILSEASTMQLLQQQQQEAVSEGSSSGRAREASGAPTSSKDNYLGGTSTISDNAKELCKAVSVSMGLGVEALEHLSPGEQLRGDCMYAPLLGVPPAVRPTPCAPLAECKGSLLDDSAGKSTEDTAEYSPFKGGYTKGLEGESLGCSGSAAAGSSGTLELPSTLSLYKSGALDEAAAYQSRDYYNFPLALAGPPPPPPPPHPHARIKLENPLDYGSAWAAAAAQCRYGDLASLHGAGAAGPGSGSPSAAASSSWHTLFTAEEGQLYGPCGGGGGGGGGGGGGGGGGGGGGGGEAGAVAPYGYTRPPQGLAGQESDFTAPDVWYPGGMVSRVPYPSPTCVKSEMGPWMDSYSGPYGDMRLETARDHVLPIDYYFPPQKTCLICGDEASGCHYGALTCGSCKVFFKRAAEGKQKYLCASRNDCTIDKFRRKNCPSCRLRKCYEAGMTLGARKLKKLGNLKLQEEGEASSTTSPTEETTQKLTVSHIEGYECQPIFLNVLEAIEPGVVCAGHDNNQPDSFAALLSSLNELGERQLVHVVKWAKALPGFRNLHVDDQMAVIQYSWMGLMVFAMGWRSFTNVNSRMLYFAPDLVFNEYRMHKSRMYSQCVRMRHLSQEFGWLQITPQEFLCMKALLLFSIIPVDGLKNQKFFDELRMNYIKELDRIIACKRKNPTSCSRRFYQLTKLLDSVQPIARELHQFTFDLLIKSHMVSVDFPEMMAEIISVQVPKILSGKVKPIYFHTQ
Description: (§1) HeLa cells (purchased from Dai-Nippon Seiyaku K. K.) were cultured overnight in Dulbecco's Modified Eagle Medium containing no phenol red, but containing 3% charcoal-treated fetal bovine serum (hereafter referred to as DCC-FBS) (this medium is hereafter referred to as phenol-red-free DMEM). An MMTV-Luc-Hyg vector (reporter plasmid with mouse mammary tumor virus long terminal repeat, containing an androgen response element and a hygromycin resistance gene: a vector obtained by substituting a chloramphenicol acetyl transferease gene of a GM-CAT vector (A.T.C.C No. 67282) purchased from the A.T.C.C. with the firefly luciferase gene, and inserting a hygromycin resistance gene as a drug resistant gene), and pSG5-hAR-neo (human androgen receptor expression vector: a vector having an androgen receptor gene under the control of the SV40 promoter, and having a neomycin resistance gene inserted as a drug resistance gene) were transfected into the HeLa cells using an FuGENE™ 6 Transfection Reagent (obtained from Roche).
(§2) The clone cells thus obtained (11A11B2 cells) were maintained and propagated using DMEM containing 400 μg/mL neomycin, 200 μg/mL hygromycin and 10% FBS, and were propagated using phenol-red-free DMEM containing 10% DCC-FBS three to four days prior to the performance of an androgen receptor reporter gene assay.
The 11A11B2 cells were inoculated in a white clear-bottomed 96-well microplate (COSTAR) so that the cell concentration was 1.0×10^4/well, and were cultured overnight using phenol-red-free DMEM containing 3% DCC-FBS (hereafter referred to as the assay medium). Samples of the assay medium containing the compounds of the Examples and compounds of the Comparative Examples were added so that the final concentrations of the compounds of the Examples and compounds of the Comparative Examples were 1, 10, 100, 1,000 and 10,000 nmol/L), and the cells were cultured for 48 hours, after which the transcription activity value was measured. The transcription activity was measured using a Bright-Glo™ Luciferase Assay System (Promega).
The transcription activity rates of the compounds of the Examples were calculated from the transcription activity measured by the abovementioned method, with the transcription activity value obtained at 0.1 nmol/L DHT taken as 100%, and the transcription activity value in the case of the assay medium alone taken as 0%. The compound concentration showing a transcription activity of 5% (EC5 value) was calculated from a linear equation for two points on either side of 5%.

human androgen receptor [2] = target: T1, human androgen receptor; assay: Investigation of antagonist effect on androgen receptor (reporter gene assay, 11A11B2 cells, with DHT); format: cell-based
Description: as §1, §2
The 11A11B2 cells were inoculated in a white clear-bottomed 96-well microplate (COSTAR) so that the cell concentration was 1.0×10^4/well, and were cultured overnight. The assay medium containing DHT was added so that the final concentration of DHT was 0.1 nmol/L, and samples of the assay medium containing the compounds of the Examples or compounds of the Comparative Examples were added so that the final concentrations of the compounds of the Examples or compounds of the Comparative Examples were 1, 10, 100, 1,000 and 10,000 nmol/L, respectively. After culturing for 48, hours, the transcription activity values were measured. The transcription activity was measured using a Bright-Glo™ Luciferase Assay System (Promega).
The transcription activity rates of the compounds of the Examples were calculated from the transcription activity measured by the abovementioned method, with the transcription activity value obtained at 0.1 nmol/L DHT taken as 100%, and the transcription activity value in the case of the assay, medium alone taken as 0%.

[3] = with 0.1 nmol/L DHT, transcription activity rate of Test Example 1 subtracted, 11A11B2 cells, 48 hours, read-out: IC50

Compound	EC5 (human androgen receptor [1])	pIC50 (human androgen receptor [2]; [3])	pIC50 (human androgen receptor [2])
CCC(=O)N1CCC(N2C(=O)N(c3ccc(C#N)c(Cl)c3C)C(=O)C2(C)C)CC1 [Example 12, 4-[3-(1-propionylpiperidin-4-yl)-4,4-dimethyl-2,5-dioxoimidazolidin-1-yl]-2-chloro-3-methylbenzonitrile]	>10 µM	6.15	–
CC(=O)Nc1nc2cc(N3C(=S)N(c4ccc(C#N)c(Cl)c4)C(=O)C3(C)C)ccc2s1 [Example 16, 4-[3-(2-acetylaminobenzothiazol-5-yl)-4,4-dimethyl-5-oxo-2-thioxoimidazolidin-1-yl]-2-chlorobenzonitrile]	3 µM	–	7.40
CC1(C)C(=O)N(c2ccc(C#N)c(C(F)(F)F)c2)C(=S)N1c1ccc2sc(NC(N)=O)nc2c1 [Example 18, {5-[3-(4-cyano-3-trifluoromethylphenyl)-5,5-dimethyl-4-oxo-2-thioxoimidazolidin-1-yl]-benzothiazol-2-yl}urea]	>10 µM	–	7.00
COc1cc(N2C(=O)C(C)(C)N(c3ccc4sc(NC(N)=O)nc4c3)C2=S)ccc1C#N [Example 19, {5-[3-(4-cyano-3-methoxyphenyl)-5,5-dimethyl-4-oxo-2-thioxoimidazolidin-1-yl]-benzothiazol-2-yl}urea]	>10 µM	6.70	–
CC1(C)C(=O)N(c2ccc(C#N)c(Cl)c2)C(=S)N1c1ccc2sc(NC(N)=O)nc2c1 [Example 20, {5-[3-(4-cyano-3-chlorophenyl)-5,5-dimethyl-4-oxo-2-thioxoimidazolidin-1-yl]-benzothiazol-2-yl}urea]	>10 µM	–	7.00
CC1(C)C(=O)N(c2ccc(C#N)c(C(F)(F)F)c2)C(=O)N1c1ccc(NC(=O)CN2CCNCC2)c(Cl)c1 [Example 21, N-{2-chloro-4-[3-(4-cyano-3-trifluoromethylphenyl)-5,5-dimethyl-2,4-dioxoimidazolidin-1-yl]-phenyl}-2-piperazin-1-ylacetamide]	>10 µM	6.30	–
CC(=O)Nc1cc(N2C(=S)N(c3ccc(C#N)c(C(F)(F)F)c3)C(=O)C2(C)C)ccc1Cl [Example 22, 4-[3-(3-acetylamino-4-chlorophenyl)-4,4-dimethyl-5-oxo-2-thioxoimidazolidin-1-yl]-2-trifluoromethylbenzonitrile]	>10 µM	6.70	–
CC(C)OC(=O)Nc1cc(N2C(=O)N(c3ccc(C#N)c(C(F)(F)F)c3)C(=O)C2(C)C)ccc1Cl [Example 23, 4-[3-(3-isopropoxycarbonylamino-4-chlorophenyl)-4,4-dimethyl-2,5-dioxoimidazolidin-1-yl]-2-trifluoromethylbenzonitrile]	>10 µM	6.30	–
CCOC(=O)Nc1cc(N2C(=O)N(c3ccc(C#N)c(OC)c3)C(=O)C2(C)C)ccc1Cl [Example 24, 4-[3-(3-ethoxycarbonylamino-4-chlorophenyl)-4,4-dimethyl-2,5-dioxoimidazolidin-1-yl]-2-methoxybenzonitrile]	>10 µM	6.70	–
COc1cc(N2C(=O)N(c3ccc(Cl)c(NC(=O)OC(C)C)c3)C(C)(C)C2=O)ccc1C#N [Example 25, 4-[3-(3-isopropoxycarbonylamino-4-chlorophenyl)-4,4-dimethyl-2,5-dioxoimidazolidin-1-yl]-2-methoxybenzonitrile]	>10 µM	6.40	–
CCCOC(=O)Nc1cc(N2C(=O)N(c3ccc(C#N)c(OC)c3)C(=O)C2(C)C)ccc1Cl [Example 26, 4-[3-(3-n-propoxycarbonylamino-4-chlorophenyl)-4,4-dimethyl-2,5-dioxoimidazolidin-1-yl]-2-methoxybenzonitrile]	>10 µM	6.70	–
CC1(C)C(=O)N(c2ccc(C#N)c(C(F)(F)F)c2)C(=O)N1c1ccc(Cl)c(NC(=O)OCCCO)c1 [Example 27, {2-chloro-5-[3-(4-cyano-3-trifluoromethylphenyl)-5,5-dimethyl-2,4-dioxoimidazolidin-1-yl]phenyl}-carbamic acid 3-hydroxypropyl ester]	>10 µM	6.40	–
CN(C)CCOC(=O)Nc1cc(N2C(=O)N(c3ccc(C#N)c(C(F)(F)F)c3)C(=O)C2(C)C)ccc1Cl [Example 28, {2-chloro-5-[3-(4-cyano-3-trifluoromethylphenyl)-5,5-dimethyl-2,4-dioxoimidazolidin-1-yl]phenyl}-carbamic acid 2-dimethylaminoethyl ester]	>10 µM	6.30	–
CN1CCN(CCOC(=O)Nc2cc(N3C(=O)N(c4ccc(C#N)c(C(F)(F)F)c4)C(=O)C3(C)C)ccc2Cl)CC1 [Example 29, {2-chloro-5-[3-(4-cyano-3-trifluoromethylphenyl)-5,5-dimethyl-2,4-dioxoimidazolidin-1-yl]phenyl}-carbamic acid 2-(4-methylpiperazin-1-yl)ethyl ester]	>10 µM	6.30	–
COC(=O)Nc1cc(N2C(=O)N(c3ccc(C#N)c(OC)c3)C(=O)C2(C)C)ccc1F [Example 30]	>10 µM	6.30	–
CN(C)CCOC(=O)Nc1cc(N2C(=O)N(c3ccc(C#N)c(Cl)c3)C(=O)C2(C)C)ccc1Cl [Example 31, {2-chloro-5-[3-(4-cyano-3-chlorophenyl)-5,5-dimethyl-2,4-dioxoimidazolidin-1-yl]phenyl}-carbamic acid 2-dimethylaminoethyl ester]	>10 µM	–	6.22
CN(C)CCCOC(=O)Nc1cc(N2C(=O)N(c3ccc(C#N)c(C(F)(F)F)c3)C(=O)C2(C)C)ccc1Cl [Example 32, {2-chloro-5-[3-(4-cyano-3-trifluoromethylphenyl)-5,5-dimethyl-2,4-dioxoimidazolidin-1-yl]phenyl}-carbamic acid 3-dimethylaminopropyl ester]	>10 µM	–	6.30
CC1(C)C(=O)N(c2ccc(C#N)c(C(F)(F)F)c2)C(=O)N1c1ccc(Cl)c(NC(=O)OCCCCO)c1 [Example 33, {2-chloro-5-[3-(4-cyano-3-trifluoromethylphenyl)-5,5-dimethyl-2,4-dioxoimidazolidin-1-yl]phenyl}-carbamic acid 4-hydroxybutyl ester]	>10 µM	–	6.52
CN(C)CCOC(=O)N1CCC(N2C(=S)N(c3ccc(C#N)c(C(F)(F)F)c3)C(=O)C2(C)C)CC1 [Example 36]	>10 µM	–	6.30

Reference: patent publication US8470829B2 (priority 2004, dated 2013)
